From patent US20220348876A1, “METABOLISM GUIDES DEFINITIVE LINEAGE SPECIFICATION DURING ENDOTHELIAL TO HEMATOPOIETIC TRANSITION” (Amniotics AB, priority 2019, published 2022) come the findings set out here.

Assay [1] deals with HE cells. Kind of assay: HE cell subculture with compounds, flow cytometry. It is filed as cell-based, human. The following applies: for HE-derived CD43+GPA+ cell output: day 3 of subculture vs control, UK5099 10 μM, DCA 3 mM. In general terms: A flow cytometer gives signals particle by particle.
Text: The RB9-CB1 human iPSC line was co-cultured with mouse embryonic fibroblasts (MEFs, Millipore), passaged every six days and processed to form embryoid bodies (EBs) as described previously (Guibentif, C. et al. Cell Reports 19, 10-19 (2017)). The differentiation protocol used in this study was previously described (Ditadi, A. & Sturgeon, C. M. Methods 101, 65-72 (2016)), however, small modifications were made to induce both primitive and definitive hematopoiesis, as indicated below and in FIG. 7, a. Newly-formed EBs were first kept in SFD medium supplemented with 1 ng/ml Activin A (on days 0-2) and 3 μM CHIR99021 (on day 2 only). At day 3, media was switched to “Day 3-SP34” medium supplemented with 1 ng/ml Activin A (on day 3 only) and 3 μM CHIR99021 (on day 3 only) until day 6. On day 6, media was replaced by “Day 6-SP34” medium, until day 8. In some experiments where indicated, to obtain a higher yield of HSC-like cells, EBs were kept until day 10: in this case, EBs were plated onto Matrigel (8 μg/cm^2, Corning)-coated dishes on day 8 and kept until day 10. Media was changed every day, except on days 5 and 7. On day 8 or 10 (as indicated), EBs were singularized with 5-6 rounds of 5-minute incubations with TryPLE Express (Thermo Fisher Scientific). CD34^+ cells were selected using the human CD34 MicroBead kit (Miltenyi Biotec) and stained with CD34-FITC, CD73-PE, VECad-PerCPCy5.5, CD38-PC7, CD184-APC, CD45-AF700, CD43-APCH7, GPA-eF450, CD90-BV605 and the viability marker 7AAD in order to sort HE (CD34^+CD43^−CXCR4^−CD73^−CD90^+VECad^+), EHT (CD34^+CD43^intCXCR4^−CD73^−CD90^+VECad^+) and HSC-like (CD34^+CD43^+CD90^+CD38^−) cells, according to previously described markers (Guibentif, C. et al. Cell Reports 19, 10-19 (2017); Harris, J. M. et al. Blood 121, 2483-2493 (2013) and Schenk, T. et al. Nat Med 18, 605-611 (2012)).
Sorted HE (40,000), EHT (30,000) and HSC-like (5-20,000) cells were plated onto Matrigel (16 μg/cm^2, Corning)-coated 96-well flat bottom plates in HE medium (30) with 1% penicillin-streptomycin and kept in a humidified incubator at 37° C., 5% CO2, 4% O2 overnight. […] Media was changed and drugs were added every 2 days and cells were kept in a humidified incubator at 37° C., 5% CO2, 20% O2 for 6-7 days.
(§1) To measure proliferation, cells were processed with the CellTrace Violet (CTV) kit according to manufacturer's instructions (10-minute incubation) and fluorescence was measured on a BD LSRFortessa. […] Flow cytometry outputs were analyzed on FlowJo Software, with initial gatings on SSC-A/FSC-A, FSC-H/FSC-A, SSC-H/SSC-A and 7-AAD to exclude doublets and dead cells in all experiments.
The next assay has as its system HSC-like cells. Nature of the assay: HSC-like cell subculture with compounds, flow cytometry. Type of assay: cell-based, human. The note with it: day 3, 2-DG 1 mM.
The test system of another assay is EHT cells. Kind of assay: EHT cell subculture with compounds, flow cytometry. Type of assay: cell-based, human. The following applies: EHT cells, day 3; 2-DG 1 mM.
Assay [2] has as its system HE, EHT and HSC-like cells. The following applies: 100 μM FCCP, all cell types. The procedure:
On days 3 and 6 of subculture, cells were collected after a 2-minute incubation at 37° C. with StemPro Accutase Cell Dissociation Reagent and stained with CD34-FITC, CD14-PE, CD33-PC7, CD11b-APC, CD45-AF700, CD43-APCH7, GPA-eF450, CD90-BV605 and the viability marker 7AAD and fluorescence was measured on a BD LSRII. To measure mitochondrial activity, cells were incubated with Tetramethylrhodamine ethyl ester (TMRE, 20 nM) for 30 minutes at 37° C. Negative controls were incubated with 100 μM FCCP for 30 minutes at 37° C., prior to TMRE staining. […] III and MFI levels—MFI FMO were calculated. […] III. To measure proliferation, cells were processed with the CellTrace Violet (CTV) kit according to manufacturer's instructions (10-minute incubation) and fluorescence was measured on a BD LSRFortessa. To measure EdU incorporation, HE cells were assessed on day 1 or 2 of subculture after 24 h EdU pulses, using Click-iT EdU Flow Cytometry Cell Proliferation Assay (Thermo Fisher Scientific, C10424), according to manufacturer's instructions. Flow cytometry outputs were analyzed on FlowJo Software, with initial gatings on SSC-A/FSC-A, FSC-H/FSC-A, SSC-H/SSC-A and 7-AAD to exclude doublets and dead cells in all experiments.

In assay [3] the test system is HE cells. Nature of the assay: Lymphoid differentiation assay on OP9-DL1 stroma. Type of assay: cell-based, human. The note with it: 3-day subculture in glutamine-free medium, then 35-day co-culture. The procedure:
Subculture day 3 HE cells cultured in the presence of UK5099 (10 μM), DCA (3 mM), or in glutamine-free medium with DMK (1.75 mM), nucleosides (1×) or NEAAs (1×), as indicated, were collected after a 2-minute incubation at 37° C. with StemPro Accutase Cell Dissociation Reagent and seeded onto 80% confluent OP9-DL1 stroma. Cells were cultured in OP9 medium with SCF (10 ng/ml), FLT3-L (10 ng/ml), IL-2 (5 ng/ml), IL-7 (5 ng/ml, first 15 days only) and IL-15 (10 ng/ml) with passaging onto new OP9-DL1 stroma every week, as described previously (Renoux, V. M. et al. Immunity 43, 394-407 (2015)). At day 35 of co-culture, cells were analyzed on a BD LSRFortessa.

[4] abbreviates: day 6 of subculture vs control, BPTES 25 μM, 1-AA 4 mM, TCP 300 nM, C646 10 μM, CP 5 μM.

The structures appear in SMILES notation. Like-named read-outs stand apart in the source and are kept apart here.

Text for EHT cells: The RB9-CB1 human iPSC line was co-cultured with mouse embryonic fibroblasts (MEFs, Millipore), passaged every six days and processed to form embryoid bodies (EBs) as described previously (Guibentif, C. et al. Cell Reports 19, 10-19 (2017)). The differentiation protocol used in this study was previously described (Ditadi, A. & Sturgeon, C. M. Methods 101, 65-72 (2016)), however, small modifications were made to induce both primitive and definitive hematopoiesis, as indicated below and in FIG. 7, a. Newly-formed EBs were first kept in SFD medium supplemented with 1 ng/ml Activin A (on days 0-2) and 3 μM CHIR99021 (on day 2 only). At day 3, media was switched to “Day 3-SP34” medium supplemented with 1 ng/ml Activin A (on day 3 only) and 3 μM CHIR99021 (on day 3 only) until day 6. On day 6, media was replaced by “Day 6-SP34” medium, until day 8. […]
as §1

Take `CC1=NN(c2ccc(C(=O)O)cc2)C(=O)/C1=C\c1ccc(-c2cc(C)c(C)cc2[N+](=O)[O-])o1` [C646]: the “HE-derived CD43+CD45+ population” value in the assay on HE cells [1] (setting [4]) is listed as “did not have an effect”.

Regarding `O=CC[C@@H](O)[C@H](O)[C@H](O)CO` [2-DG, 2-Deoxy-D-glucose], the “generation of the CD43+GPA+ cell population” value in the assay on HE cells [1] (day 3, % of the control, 2-DG 1 mM) was “less than 50%”. Moreover, the “CD43+ cell output from HE cells” value with HE cells [1] (day 3 of subculture, 2-DG 1 mM) is listed as “significantly reduced”. The “generation of the CD43+CD45+ cell population” value in the assay on HE cells [1] (day 6, % of the control, 2-DG 1 mM) was “less than 50%”. Besides, the “proliferation rate (CellTrace Violet)” value with HSC-like cells and in the assay with EHT cells was “significantly reduced” in each case.

As for `CC(C)c1c(C(=O)Nc2ccccc2)c(-c2ccccc2)c(-c2ccc(F)cc2)n1CC[C@@H](O)C[C@@H](O)CC(=O)O` [atorvastatin], the “effect of DCA on CD43+CD45+ cells” value in the assay with HE cells [1] (Ato 0.5 μM in combination with DCA 3 mM) is given as “abrogated the effect of DCA”.

`N#CC(C#N)=NNc1ccc(OC(F)(F)F)cc1` [FCCP, Carbonyl cyanide 4-(trifluoromethoxy)phenylhydrazone]: the TMRE signal entry in assay [2] was “abrogated the TMRE signal”.

Regarding `CC(/C=C/C(=O)NO)=C\[C@@H](C)C(=O)c1ccc(N(C)C)cc1` [TSA, Trichostatin A], the “emergence of CD43+ hematopoietic cells” value with HE cells [1] (TSA 60 nM, day 3) is given as “impaired the emergence”.

Take `O=C(c1c2ccccc2cc2ccccc12)N1CCC(N2CCC[C@@H](C(=O)N3CCOCC3)C2)CC1` [CP-640186]: in the assay on HE cells [1] (setting [4]), the “HE-derived CD43+CD45+ population” value is listed as “had the same effect as DCA”.

As to `COC(=O)CCC(=O)C(=O)OC` [DMK, dimethyl-ketoglutarate], the “CD43+GPA+ population” value with HE cells [1] (HE subcultures without glutamine, days 3 and 6, vs control) is “could not rescue”. The “proliferation profile of HE cells (CTV)” value in the assay with HE cells [1] (glutamine deprivation, day 3, vs control) is listed as “could not restore”. Also, the “percentage of CD43+ cells that have lost CD34 expression” value in the assay on HE cells [1] (glutamine-free DMK-treated condition vs control, day 3) is on record as “significantly decreased”. Besides, the “rescue of CD43+ cell output from HE cells” value with HE cells [1] (glutamine-free medium, day 3, DMK 1.75 mM) is recorded as “up to 60%”. The “percentages of CD43+CD45+ cells” value in the assay with HE cells [1] (glutamine-free medium, day 6, compared to the control) is recorded as “significant increase”. Besides, in the assay with HE cells [3], the “NK cell differentiation (CD45+CD56+)” value is given as “allowed efficient NK cell differentiation”.

As to `N[C@@H]1C[C@H]1c1ccccc1` (racemic) [TCP, Tranylcypromine], in the assay with HE cells [1], the “CD43+GPA+ cell frequency following UK5099 treatment of HE cells” value is on record as “no increase”, the “HE-derived CD43+CD45+ population” value is given as “more CD43^+CD45^+ cells” and the “myeloid differentiation (CD43+CD45+CD33+CD11b+)” value is “specifically increased”.

Regarding `O=C(Cc1ccccc1)Nc1nnc(CCSCCc2nnc(NC(=O)Cc3ccccc3)s2)s1` [BPTES], in the assay with HE cells [1] (BPTES 25 μM, 1-AA 4 mM), the “HE-derived CD43+GPA+ cell output” value is recorded as “sharp decline”. In addition, the “HE-derived CD43+CD45+ population” value in the assay on HE cells [1] (setting [4]) is recorded as “sharp decline”.

Consider `CC(N)[PH](=O)O` (stereo not drawn) [1-AA, 1-aminoethylphosphinic acid], for which, in the assay on HE cells [1] (BPTES 25 μM, 1-AA 4 mM), the “HE-derived CD43+GPA+ cell output” value is “significant increase”. Further, the “levels of total CD43+ cells” value in the assay with HE cells [1] (day 6, treated vs untreated) is reported as “unchanged”. In addition, the “HE-derived CD43+CD45+ population” value in the assay with HE cells [1] (setting [4]) is listed as “significant decrease”.
